Experimental data taken from patent US7781469B2, “Arylacetate derivatives having isoxazole skeleton” (Shionogi & Co., Ltd., priority 2005, dated 2010).

What was measured:
human PPARδ (hPPARδ) = biological target: T1, human PPARδ (hPPARδ) (Homo sapiens, UniProt Q03181); assay: Test for transcriptional activity of PPARδ (GAL4 chimeric transcription factor luciferase reporter assay in CHO cells); format: cell-based; settings: concentration showing 1/2 of maximum luciferase activity
T1 construct: (δ: aa 139-C-end; α: aa 167-C-end); expressed in transfected cells
T1 sequence (Q03181 139-441 limits assumed): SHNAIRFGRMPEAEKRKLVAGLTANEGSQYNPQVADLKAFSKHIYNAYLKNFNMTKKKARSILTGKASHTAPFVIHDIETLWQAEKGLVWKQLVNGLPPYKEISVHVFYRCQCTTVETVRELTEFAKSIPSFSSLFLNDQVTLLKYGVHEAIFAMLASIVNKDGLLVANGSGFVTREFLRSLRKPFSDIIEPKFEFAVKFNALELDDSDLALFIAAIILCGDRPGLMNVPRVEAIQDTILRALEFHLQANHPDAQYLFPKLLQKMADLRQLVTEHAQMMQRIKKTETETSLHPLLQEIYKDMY
From the text: Test Example 1 Test for Transcriptional Activity of PPARδ and α
A chimeric transcription factor assay, which is commonly used to detect nuclear receptor activity, was employed to measure PPAR transcriptional activity. Specifically, two plasmids, one that expresses the fusion protein of DNA binding domain of yeast transcription factor GAL4 and a ligand binding domain of a receptor, and a reporter plasmid were transiently transfected to CHO cells. The activity of the promoter containing a recognition sequence of GAL4 coded on the reporter plasmid was used as a parameter to estimate the activity of the receptor. • Plasmid: The ligand binding domain of human PPARδ (hPPARδ) or α (hPPARα) (δ: aa 139-C-end; α: aa 167-C-end) is obtained by PCR amplification using Human Universal Quick-Clone cDNA (CLONTECH). Each amplified cDNA was subcloned into pCR2.1-TOPO vector (Invitrogen) and the identity of the cDNA clones was confirmed by the DNA sequence. Then, each obtained cDNA fragment was subcloned into pBIND vector (Promega) to construct a plasmid expressing the fusion protein with DNA binding domain of yeast transcription factor GAL4. pG51uc vector (Promega) was used as a reporter plasmid. • Cell culturing and transfection: CHO cells were cultured in 10% FBS-αMEM. With a 96-well plate (Costar), CHO cells, that were dispersed with trypsin treatment, 20000 cells per well and the two plasmids obtained by the above procedure, 25 ng per well, were transfected with FuGene Reagent (Roche) by following the instruction of the manufacture. • Measurement of the transcriptional activity: CHO cells 100 μl per well, which were transfected as above, were dispensed into the wells in which a test compound dissolved in DMSO 0.5 μl was spotted in advance. After the cells and a test compound were cultured together for 24 hours in a CO2 incubator, the luciferase activity was measured by adding luciferase substrates, PicaGene LT2.0 (Toyo ink) 100 μl per well. LUMINOUS CT-9000D (DIA-IATRON) is used to measure the activity.

| EC50 (human PPARδ (hPPARδ)) [nM] | melting point [°C] | SMILES |
| --- | --- | --- |
| 9.8 | – | O=C(O)Cc1cccc(SCc2noc(-c3ccc(C(F)(F)F)cc3)c2C=NOCCF)c1 [X-6, {3-[4-(2-Fluoroethoxyiminomethyl)-5-(4-trifluoromethylphenyl)isoxazole-3-ylmethylsulfanyl]phenyl}acetic acid] |
| 9.8 | – | CCON=Cc1c(CSc2cc(CC(=O)O)ccc2F)noc1-c1ccc(C(F)(F)F)cc1 [X-8] |
| 12 | 131 to 133 | CCON=Cc1c(CSc2cccc(CC(=O)O)c2)noc1-c1ccc(C(F)(F)F)cc1 [X-25] |
